A word on the solubility: it is the dissolved amount per volume that the medium holds.

Molecules are shown by their SMILES. “Also recorded” adds a separate entry of the source. Where a SMILES comes first, the peptide text is derived from it. The star is where a group is joined. Palmitoyl = CCCCCCCCCCCCCCCC(=O)*

These results are taken from patent publication US8076295B2, “Peptide amphiphiles having improved solubility and methods of using same” (Nanotope, Inc., priority 2007, dated 2011).

What all share (type): physicochemical
The nature of data set [1]: Gelation kinetics and rheological properties of gels formed in artificial cerebrospinal fluid (rheometer). The following applies: for tan(δ) (loss modulus divided by storage modulus): gel in artificial cerebrospinal fluid. As to the method: Chemical structures for these molecules are also depicted in FIG. 1. Experiments were performed to examine the gelation kinetics and rheological properties of SEQ ID NO:2 with SEQ ID NO:6. Peptide amphiphile samples were dissolved in water at a concentration of 10 mg/mL.
A Physica, Inc. MCR 300 Molecular Compact Rheometer equipped with a 25 mm plate was used to measure stiffness of gels formed by SEQ ID NO:2 and SEQ ID NO:6 in vitro. Samples were measured at 21° C., 0.5% shear strain, with a frequency (ω) of 10 Hz and a gap between the plates of 0.5 mm. G′ (storage modulus) and […] were measured with respect to time post-gelation.
Tan(δ) (defined as the loss modulus divided by the storage modulus) quantifies the balance between energy loss and energy storage in a material, regardless of viscosity.

Data set [2] can be described thus: Dissolution in water on pH adjustment with NaOH. The following applies: 5 mg/mL in water, pH adjusted to 7.0-7.5 with NaOH. The procedure:
The lyophilized peptide amphiphile powder was weighed and re-dissolved in USP pharmaceutical grade water at a concentration of 5 mg/mL. The colloidal suspension obtained was agitated in an ultrasonic bath for 30 min.

Data set [3] is described as follows: Solubility in aqueous ammonium hydroxide buffer. The following applies: for solubility: water containing 0.1 vol % ammonium hydroxide, water containing 0.1% by volume ammonium hydroxide. The procedure: SEQ ID NO:2 or SEQ ID NO:4 was dissolved at 20 mg/mL in an aqueous solution with sufficient ammoniumhydroxide to obtain a pH of 9. This solution was purified in 5 mL aliquots using an Agilent, Inc. model 1100 preparative HPLC equipped with a Phenomenex, Inc. Gemini® 5 μm C18 column (100×30 mm). An elution gradient of water and acetonitrile (each containing 0.1 vol % ammonium hydroxide buffer) was used, as shown in FIG. 2A. The flow rate was 15 mL/min, and the mobile phase was pre-heated to ca. 45° C. using a Timberline Instruments TL-105 column heater.
While the amino acid sequence change between SEQ ID NO:2 and SEQ ID NO:6 appears at first glance to be relatively minor, it nevertheless confers several important and unexpected consequences. The additional glutamic acid residue increases the aqueous solubility and broadens the type of aqueous buffers in which the molecule is soluble. Absent this modification, the only amino acid side chains that are ionized under physiological conditions in SEQ ID NO:6 form a zwitterion (e.g. Glu-Ile-Lys), which limits the molecule's solubility in most aqueous buffers. […] This change has important implications for the manufacturability and clinical development of the peptide amphiphile, as solubility in an ammonium hydroxide buffer greatly facilitates purification by HPLC.
This seemingly insignificant modification (the deletion of one methylene group from the residue) results in a greater than 20-fold increase in aqueous solubility of the peptide amphiphile in an ammonium hydroxide buffer, greatly facilitating purification by HPLC (see FIG. 2D).

The mark [4] stands for this setting: 21° C., 0.5% shear strain, 10 Hz.

For the compound `CCCCCCCCCCCCCCCC(=O)N[C@@H](CO)C(=O)N[C@@H](CC(C)C)C(=O)N[C@@H](CO)C(=O)N[C@@H](CC(C)C)C(=O)N[C@@H](C)C(=O)N[C@@H](C)C(=O)N[C@@H](C)C(=O)N[C@@H](CCC(=O)O)C(=O)N[C@@H](CCC(=O)O)C(=O)N[C@H](C(=O)N[C@@H](CCCCN)C(=O)N[C@H](C(=O)N[C@@H](C)C(=O)N[C@H](C(=O)O)C(C)C)C(C)C)[C@@H](C)CC` [SEQ ID NO:2, C16H31O-Ser-Leu-Ser-Leu-Ala-Ala-Ala-Glu-Glu-Ile-Lys-Val-Ala-Val-OH] (Palmitoyl-SLSLAAAEEIKVAV-OH), the “self-assembly / gel formation induced by artificial CSF” value in data set [1] (10 mg/mL in water mixed with equal volume of artificial CSF) is “resulting in a gel with the desired properties”. Also, the “tan(δ) (loss modulus divided by storage modulus)” value in data set [1] (setting [4]) is “significantly lower”. In addition, in data set [1] (one hour post-gelation, 10 mg/mL solution mixed with equal volume of artificial CSF, 21° C., 0.5% shear strain, 10 Hz), the “complex shear modulus (G*) compared with SEQ ID NO:6” value is given as “an order of magnitude greater”. Besides, in data set [2], the “dissolution of colloidal suspension on pH adjustment” value was “go readily into solution”. In addition, the solubility in data set [3] was above 20 mg/mL.

Turning to `CCCCCCCCCCCCCCCC(=O)N[C@@H](CO)C(=O)N[C@@H](CC(C)C)C(=O)N[C@@H](CO)C(=O)N[C@@H](CC(C)C)C(=O)N[C@@H](C)C(=O)N[C@@H](C)C(=O)N[C@@H](C)C(=O)N[C@@H](CC(=O)O)C(=O)N[C@H](C(=O)N[C@@H](CCCCN)C(=O)N[C@H](C(=O)N[C@@H](C)C(=O)N[C@H](C(=O)O)C(C)C)C(C)C)[C@@H](C)CC` [SEQ ID NO:4, C16H31O-Ser-Leu-Ser-Leu-Ala-Ala-Ala-Asp-Ile-Lys-Val-Ala-Val-OH] (Palmitoyl-SLSLAAADIKVAV-OH), the “dissolution of colloidal suspension on pH adjustment” value in data set [2] was “go readily into solution”. Besides, the “increase in aqueous solubility relative to SEQ ID NO:6” value in data set [3] (ammonium hydroxide buffer) is “greater than 20 fold”. In data set [3], this compound registered a solubility above 20 mg/mL.

As to `CCCCCCCCCCCCCCCC(=O)N[C@@H](CO)C(=O)N[C@@H](CC(C)C)C(=O)N[C@@H](CO)C(=O)N[C@@H](CC(C)C)C(=O)N[C@@H](C)C(=O)N[C@@H](C)C(=O)N[C@@H](C)C(=O)N[C@@H](CCC(=O)O)C(=O)N[C@H](C(=O)N[C@@H](CCCCN)C(=O)N[C@H](C(=O)N[C@@H](C)C(=O)N[C@H](C(=O)O)C(C)C)C(C)C)[C@@H](C)CC` [SEQ ID NO:6, C16H31O-Ser-Leu-Ser-Leu-Ala-Ala-Ala-Glu-Ile-Lys-Val-Ala-Val-OH, reference compound] (Palmitoyl-SLSLAAAEIKVAV-OH), the “tan(δ) (loss modulus divided by storage modulus)” value in data set [1] (setting [4]) is on record as “liquid-like”. The “solubility (in words)” value in data set [3] (0.1 vol % ammonium hydroxide aqueous buffer) is reported as “relatively low solubility; also recorded: only sparingly soluble”. The solubility in data set [3] is below 1 mg/mL.
